One data set addresses T1, MMP-9 (Homo sapiens, UniProt P14780).
T1 construct: made in house
As to the kind of experiment: P218 quenched fluorescence assay for MMP inhibition, MMP-9. As to conditions: 6 μM P218 substrate, 25 min at 37° C., pH 6.5; read-out: MMP-9 Fluorogenic IC50. It is filed as biochemical. An excerpt: (§1) P218 Quenched Fluorescence Assay for MMP Inhibition:
(§2) The P218 quenched fluorescence assay (Microfluorometric Profiling Assay) is a modification of that originally described by Knight, et al., FEBS Lett. 296, 263 (1992) for a related substance and a variety of matrix metalloproteinases (MMPs) in cuvettes. The assay was run with each invention compound and the three MMPs, MMP-3, MMP-9 and MMP-2, analyzed in parallel, adapted as follows for a 96-well microtiter plate and a Hamilton AT® workstation.
(§3) P218 Fluorogenic Substrate: P218 is a synthetic substrate containing a 4-acetyl-7-methoxycoumarin (MCA) group in the N-terminal position and a 3-[2,4-dinitrophenyl]-L-2,3-diaminopropionyl (DPA) group internally. This is a modification of a peptide reported by Knight (1992) that was used as a substrate for matrix metalloproteinases. Once the P218 peptide is cleaved (putative clip site at the Ala-Leu bond), the fluorescence of the MCA group can be detected on a fluorometer with excitation at 328 nm and emission at 393 nm. P218 is currently being produced BACHEM exclusively for Bayer. P218 has the structure:
(§4) H-MCA-Pro-Lys-Pro-Leu-Ala-Leu-DPA-Ala-Arg-NH2 (MW 1332.2)
Preparation of Human Recombinant Pro-Gelatinase B (MMP-9):
Recombinant Human Pro-MMP-9: Human pro-gelatinase B (pro-MMP-9) derived from U937 cDNA as described by Wilhelm, et al. J. Biol. Chem. 264, 17213 (1989) was expressed as the full-length form using a baculovirus protein expression system. The pro-enzyme was purified using methods previously described by Hibbs, et al. J. Biol. Chem. 260, 2493 (1984).
Activation of Pro-MMP-9: […] 20 μg/mL in 50 mM Tris at pH 7.4, 10 mM CaCl2, 150 mM NaCl, and 0.005% Brij-35 (MMP-9 activation buffer) was activated by incubation with 0.5 mM p-aminophenylmercuric acetate (APMA) for 3.5 h at 37° C. The enzyme was dialyzed against the same buffer to remove the APMA.
(§5) Hamiltion Microlab AT Plus: The MMP-Profiling Assay is performed robotically on a Hamilton MicroLab AT Plus®. The Hamilton is programmed to: (1) serially dilute up to 11 potential inhibitors automatically from a 2.5 mM stock in 100% DMSO; (2) distribute substrate followed by inhibitor into a 96 well Cytofluor plate; and (3) add a single enzyme to the plate with mixing to start the reaction. Subsequent plates for each additional enzyme are prepared automatically by beginning the program at the substrate addition point, remixing the diluted inhibitors and beginning the reaction by addition of enzyme. In this way, all MMP assays were done using the same inhibitor dilutions.
(§6) Millipore Cytofluor II. Following incubation, the plate was read on a Cytofluor II fluorometric plate reader with excitation at 340 nm and emission at 395 nm with the gain set at 80.
(§7) Microfluorometric Reaction Buffer (MRB): Dilution of test compounds, enzymes, and P218 substrate for the microfluorometric assay were made in microfluorometric reaction buffer consisting of 50 mM 2-(N-morpholino)ethanesulfonic acid (MES) at pH 6.5 with 10 mM CaCl2, […] NaCl, 0.005% Brij-35 and 1% DMSO.
(§8) MMP Microfluorometric Profiling Assay. The assay is done with a final substrate concentration of 6 μM P218 and approximately 0.5 to 0.8 nM MMP with variable drug concentrations. The Hamilton is programmed to serially dilute up to 11 compounds from a 2.5 mM stock (100% DMSO) to 10× the final compounds concentrations in the assay. Initially, the instrument delivers various amounts of microfluoromentric reaction buffer (MRB) to a 96 tube rack of 1 ml Marsh dilution tubes. The instrument then picks up 20 μl of inhibitor (2.5 mM) from the sample rack and mixes it with a buffer in row A of the Marsh rack, resulting in a 50 μM drug concentration. The inhibitors are then serially diluted to 10, 5, 1, 0.2, 0.05 and 0.01 μM. […]

For the next data set, the target named is T2, MMP-3 (Homo sapiens, UniProt P08254).
T2 construct: made in house; host or cells: CHO cells
T2 sequence (P08254 100-477): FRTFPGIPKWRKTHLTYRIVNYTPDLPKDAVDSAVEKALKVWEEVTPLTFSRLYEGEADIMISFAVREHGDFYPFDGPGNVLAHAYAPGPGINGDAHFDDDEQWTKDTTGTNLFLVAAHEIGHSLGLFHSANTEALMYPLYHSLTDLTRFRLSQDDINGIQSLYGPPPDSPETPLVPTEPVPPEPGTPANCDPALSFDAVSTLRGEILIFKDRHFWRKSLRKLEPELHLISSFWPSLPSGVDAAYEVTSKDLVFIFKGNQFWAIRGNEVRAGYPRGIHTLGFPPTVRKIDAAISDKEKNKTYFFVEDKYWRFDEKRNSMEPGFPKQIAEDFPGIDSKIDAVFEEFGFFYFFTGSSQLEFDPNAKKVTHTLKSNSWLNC
As to the kind of experiment: P218 quenched fluorescence assay for MMP inhibition, MMP-3. As to conditions: 6 μM P218 substrate, 25 min at 37° C., pH 6.5; read-out: MMP-3 Fluorogenic IC50. Type of data set: biochemical.
Text: as §1, §2, §3, §4
Recombinant Human CHO Stromelysin (MMP-3)
Recombinant Human CHO Pro-MMP-3: Human CHO pro-stromelysin-257 (pro-MMP-3) was expressed and purified as described by Housley, et al., J. Biol. Chem. 268, 4481 (1993).
Activation of Pro-MMP-3: Pro-MMP-3 at 1.72 μM (100 μg/mL) in 5 mM Tris at pH 7.5, 5 mM CaCl2, 25 mM NaCl, and 0.005% Brij-35 (MMP-3 activation buffer) was activated by incubation with TPCK (N-tosyl-(L)-phenylalanine chloromethyl ketone) trypsin (1:100 w/w to pro-MMP-3) at 25° C. for 30 min. The reaction was stopped by addition of soybean trypsin inhibitor (SBTI; 5:1 w/w to trypsin concentration). This activation protocol results in the formation of 45 kDa active MMP-3, which still contains the C-terminal portion of the enzyme.
as §5, §6, §7, §8

Another data set addresses MMP-2 (Homo sapiens, UniProt P08253). Description: biochemical. As to conditions: MMP-2 Fluorogenic IC50.
The conditions of data set [1]: Child, et al., J. Pharm. Sci., 66, 466 (1977); cited from earlier work.

Molecules are shown by their SMILES.

MMP-2, sequence (P08253 110-660): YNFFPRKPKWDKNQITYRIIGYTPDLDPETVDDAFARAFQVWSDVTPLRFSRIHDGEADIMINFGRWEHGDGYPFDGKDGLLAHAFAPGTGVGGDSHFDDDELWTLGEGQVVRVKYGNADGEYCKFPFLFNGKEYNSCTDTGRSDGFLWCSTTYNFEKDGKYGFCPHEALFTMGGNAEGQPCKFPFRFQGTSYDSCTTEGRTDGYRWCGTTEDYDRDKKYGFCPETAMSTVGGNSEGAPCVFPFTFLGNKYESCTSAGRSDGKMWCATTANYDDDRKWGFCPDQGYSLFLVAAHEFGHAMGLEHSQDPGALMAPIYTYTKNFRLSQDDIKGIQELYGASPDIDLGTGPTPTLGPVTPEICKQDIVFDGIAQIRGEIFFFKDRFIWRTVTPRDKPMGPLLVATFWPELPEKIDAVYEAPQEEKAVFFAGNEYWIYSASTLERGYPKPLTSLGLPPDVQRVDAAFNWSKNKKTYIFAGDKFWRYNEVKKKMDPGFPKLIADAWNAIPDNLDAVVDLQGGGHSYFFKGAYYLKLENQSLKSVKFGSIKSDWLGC
T1 sequence (P14780 107-707 limits assumed): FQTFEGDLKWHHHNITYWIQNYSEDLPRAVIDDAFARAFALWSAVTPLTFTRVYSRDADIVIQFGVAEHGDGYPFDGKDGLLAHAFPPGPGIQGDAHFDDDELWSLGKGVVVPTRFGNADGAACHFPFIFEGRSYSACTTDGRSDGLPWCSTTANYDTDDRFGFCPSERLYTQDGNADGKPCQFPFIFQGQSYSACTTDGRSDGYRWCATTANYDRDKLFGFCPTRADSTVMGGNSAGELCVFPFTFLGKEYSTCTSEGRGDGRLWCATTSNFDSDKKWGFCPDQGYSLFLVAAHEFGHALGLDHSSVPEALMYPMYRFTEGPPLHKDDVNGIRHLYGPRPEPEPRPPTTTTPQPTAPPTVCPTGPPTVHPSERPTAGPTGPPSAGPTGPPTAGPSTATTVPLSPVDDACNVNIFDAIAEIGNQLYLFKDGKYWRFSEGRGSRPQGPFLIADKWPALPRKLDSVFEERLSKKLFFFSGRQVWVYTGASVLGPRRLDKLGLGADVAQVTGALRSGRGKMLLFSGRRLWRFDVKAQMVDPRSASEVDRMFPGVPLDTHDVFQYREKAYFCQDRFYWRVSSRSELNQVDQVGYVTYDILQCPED

`O=C(CC(CCn1ncc2ccccc2c1=O)C(=O)O)c1ccc(-c2ccc(Cl)cc2)cc1` (stereo not drawn) [Example 18, R/S α-[2-(4′-chloro[1,1′-biphenyl]-4-yl)-2-oxoethyl]-1-oxo-2(1H)-phthalazinebutanoic acid]: the results for the IC50 at MMP-9, at MMP-3 and at MMP-2 were 32 nM, 59 nM and 13 nM, respectively.

With `O=C(O)CC(C(=O)c1ccc(-c2ccccc2)cc1)c1ccccc1` (centres unmarked) [LXXVII], the “activity as anti-inflammatory analgesic agents” value (shortened to “activity”) in data set [1] was “inactive”.

For the compound `O=C(CC(CCn1nnc2ccccc2c1=O)C(=O)O)c1ccc(-c2ccc(Cl)cc2)cc1` (single isomer, unassigned) [Example 20, α-[2-(4′-chloro[1,1′-biphenyl]-4-yl)-2-oxoethyl]-4-oxo-1,2,3,-Benzotriazine-3(4H)-butanoic acid], the concentration for half-maximal inhibition (IC50) (usually the midpoint of a concentration-inhibition curve) is 84 nM on MMP-9, 320 nM on MMP-3 and 57 nM against MMP-2.

Turning to `CC(CC(=O)c1ccc(-c2ccccc2)cc1)C(=O)O` (centres unmarked) [XLVII], the “activity” value in data set [1] was “inactive”.

With `O=C(c1ccc(-c2ccc(Cl)cc2)cc1)C1CCC(Cn2ncc3ccccc3c2=O)C1C(=O)O` (centres unmarked) [Example 5], the values for the half-maximal inhibitory concentration (IC50) on MMP-9, at MMP-3 and on MMP-2 were 2.3 nM, 4.2 nM and 1.4 nM, respectively.

As to `O=C(CC(CCn1nnc2ccccc2c1=O)C(=O)O)c1ccc(-c2ccc(Cl)cc2)cc1` (single isomer, unassigned) [Example 21, α-[2-(4′-chloro[1,1′-biphenyl]-4-yl)-2-oxoethyl]-4-oxo-1,2,3,-Benzotriazine-3(4H)-butanoic acid], the 50% inhibitory concentration (IC50) at MMP-9 amounted to 2.1 nM; at MMP-3 it was 6.5 nM; against MMP-2, 1.5 nM.

On to `O=C(c1ccc(-c2ccc(Cl)cc2)cc1)C1CCC(Cn2c(=O)oc3ccccc32)C1C(=O)O` (centres unmarked) [Example 6], for which the IC50 on MMP-9 was found to be 4.3 nM; at MMP-3 it was 4.1 nM; on MMP-2 it was 0.5 nM.

Turning to `O=C(O)C1[C@H](COCOCc2ccccc2)CC[C@@H]1C(=O)c1ccc(-c2ccc(Cl)cc2)cc1` (relative stereo) [Example 2], the melting point (in general, the temperature, or range, at which the solid turns liquid) fell in the range of 112 to 130 °C. Besides, on MMP-9, the IC50 was found to be 24 nM. In addition, at MMP-3, the IC50 was 17 nM. Moreover, the IC50 against MMP-2 was found to be 9.5 nM.

As to `O=C(CC(C(=O)O)c1ccccc1)c1ccc(-c2ccccc2)cc1` (centres unmarked) [XLIX], the “activity” value in data set [1] was “inactive”.

`O=C(c1ccc(-c2ccc(Cl)cc2)cc1)C1CCC(CSC(=S)N2CCCC2)C1C(=O)O` (centres unmarked) [Example 3] registered a melting point of 177 to 178 °C. The IC50 on MMP-9 came to 67 nM. For the same compound, the IC50 at MMP-3 worked out at 31 nM. The compound further yielded an IC50 against MMP-2 of 21 nM.

Values taken from patent US6911449B2, “Inhibition of matrix metalloproteases by substituted biaryl oxobutyric acids” (Bayer Pharmaceuticals Corporation, priority 1996, dated 2005).
